Assay [1] concerns RPE-Neo or RPE-MYC or RPE-MYC expressing an EGFP-Histone 2B fusion protein. The assay can be described thus: Phenotypic screening assay (arrest in mitosis or change in DNA content, IN-Cell Analyzer). Type of assay: cell-based. The conditions noted are these: compounds at 20 nM to 20 μM, analysed 24, 48 or 72 hours after initiation of treatment. The procedure:
(§1) Screening was conducted as described before (Li et al. 2019). Briefly, RPE-Neo or RPE-MYC or RPE-MYC expressing an EGFP-Histone 2B fusion protein were passaged as batches of 96-well plates, 18-24 hours before exposure to the chemical compounds of the present disclosure at concentrations from 20 nM to 20 μM. At 24, 48 or 72 hours after initiation of treatment, cells were analyzed for either an arrest in mitosis or a change in DNA content by GE 1N-Cell Analyzer 2000. MTT assays of cellular proliferation were performed as previously described (Li et al. 2019).
(§2) As set forth in table 2 below, an values of greater than or equal to 1 nM and less than or equal to 1.0 μM is marked “A”; a value greater than 1.00 μM and less than or equal to 10.0 μM is marked “B”; a value greater than 10.0 μM and less than or equal to 30.0 μM is marked “C”; and a value greater than 30.0 μM and less than 1000 μM is marked “D.”

The next assay concerns RPE-Neo or RPE-MYC cells. The assay can be described thus: MTT assay of cellular proliferation. Type of assay: cell-based. The settings on record: compounds at 20 nM to 20 μM; read-out: Min. Effective conc. for Proliferative arrest (>50%). The procedure:
Human cancer cell lines were obtained from ATCC and cultured in DMEM (Gibco, Cleveland. TN, USA) supplemented with 5% fetal bovine serum (Gibco), penicillin (100 U/mL)-streptomycin (100 μg/mL) (Gibco, Cat. No. 15140-122), 2 mM L-glutamine (Gibco, 200 mM solution, Cat. No. 25030081), and 1 mM sodium pyruvate (Gibco, 100 mM solution, Cat. No. 11360070) at 37° C. in a humidified incubator that was maintained at 5% CO2.
as §1, §2

Where [2] appears, read: read-out: Min. Effective conc. for Along with Cell Death.
The mark [3] stands for this setting: read-out: Min. Effective conc. for Mitotic Arrest (>5%).
Setting [4] is: read-out: Min. Effective conc. for Polyploidy (≥5%).

Each structure is given as a SMILES string. Read-outs that look alike come from different tables or passages of the source.

Take `Cc1ccc2c(c1)N(Cc1ccc(C)c(F)c1)C(=O)CC(c1nnc(C)o1)=C2Br` [Compound 20-13, 5-bromo-1-(3-fluoro-4-methylbenzyl)-8-methyl-4-(5-methyl-1,3,4-oxadiazol-2-yl)-1,3-dihydro-2H-benzo[b]azepin-2-one]: the minimal effective concentration (in assay [1] (setting [2]); in assay [1] (setting [3]); in assay [1] (setting [4]); in the assay with RPE-Neo or RPE-MYC cells) was 0.001 to 1 µM throughout.

`Cc1ccc(CN2C(=O)CC(c3nnc(C4CC4)o3)=C(Br)c3ccc(C(F)(F)F)cc32)cc1F` [Compound 20-14, 5-bromo-4-(5-cyclopropyl-1,3,4-oxadiazol-2-yl)-1-(3-fluoro-4-methylbenzyl)-8-(trifluoromethyl)-1,3-dihydro-2H-benzo[b]azepin-2-one]: the minimal effective concentration (in assay [1] (setting [2]); in assay [1] (setting [3]); in assay [1] (setting [4]); with RPE-Neo or RPE-MYC cells) was 0.001 to 1 µM throughout.

On to `Cc1ccc(CN2C(=O)CC(c3nnc(C4CC4)o3)=C(Br)c3cccc(F)c32)cc1F` [Compound 20-15, 5-bromo-4-(5-cyclopropyl-1,3,4-oxadiazol-2-yl)-9-fluoro-1-(3-fluoro-4-methylbenzyl)-1,3-dihydro-2H-benzo[b]azepin-2-one], for which the minimal effective concentration (in assay [1] (setting [2]); in assay [1] (setting [3]); in assay [1] (setting [4]); in the assay with RPE-Neo or RPE-MYC cells) was 0.001 to 1 µM throughout.

Consider `Cc1ccc(CN2C(=O)CC(c3nnc(C4CC4)o3)=C(Br)c3c(F)cccc32)cc1F` [Compound 20-16, 5-bromo-4-(5-cyclopropyl-1,3,4-oxadiazol-2-yl)-6-fluoro-1-(3-fluoro-4-methylbenzyl)-1,3-dihydro-2H-benzo[b]azepin-2-one], for which the minimal effective concentration (in assay [1] (setting [2]); in assay [1] (setting [3]); in assay [1] (setting [4]); with RPE-Neo or RPE-MYC cells) was 0.001 to 1 µM in each case.

Turning to `Cc1ccc(CN2C(=O)CC(c3nnc(C4CC4)o3)=C(Br)c3cc(F)ccc32)cc1F` [Compound 20-17, 5-bromo-4-(5-cyclopropyl-1,3,4-oxadiazol-2-yl)-7-fluoro-1-(3-fluoro-4-methylbenzyl)-1,3-dihydro-2H-benzo[b]azepin-2-one], the minimal effective concentration (in assay [1] (setting [2]); in assay [1] (setting [3]); in assay [1] (setting [4]); in the assay on RPE-Neo or RPE-MYC cells) was 0.001 to 1 µM each time.

Regarding `Cc1ccc(CN2C(=O)CC(c3nnc(C4CC4)o3)=C(Br)c3cccc(C)c32)cc1F` [Compound 20-18, 5-bromo-4-(5-cyclopropyl-1,3,4-oxadiazol-2-yl)-1-(3-fluoro-4-methylbenzyl)-9-methyl-1,3-dihydro-2H-benzo[b]azepin-2-one], the minimal effective concentration (in assay [1] (setting [2]); in assay [1] (setting [3]); in assay [1] (setting [4]); in the assay with RPE-Neo or RPE-MYC cells) was 0.001 to 1 µM in each case.

Regarding `C#Cc1ccc2c(c1)N(Cc1ccc(C)c(F)c1)C(=O)CC(c1nnc(C3CC3)o1)=C2Br` [Compound 20-20, 5-bromo-4-(5-cyclopropyl-1,3,4-oxadiazol-2-yl)-8-ethynyl-1-(3-fluoro-4-methylbenzyl)-1,3-dihydro-2H-benzo[b]azepin-2-one], the minimal effective concentration (in assay [1] (setting [2]); in assay [1] (setting [3]); in assay [1] (setting [4]); in the assay with RPE-Neo or RPE-MYC cells) was 0.001 to 1 µM throughout.

Turning to `COc1ccc(CN2C(=O)CC(c3nnc(C4CC4)o3)=C(Br)c3ccccc32)cc1` [Compound 20-21, 5-bromo-4-(5-cyclopropyl-1,3,4-oxadiazol-2-yl)-1-(4-methoxybenzyl)-1,3-dihydro-2H-benzo[b]azepin-2-one], the minimal effective concentration (in assay [1] (setting [2]); in assay [1] (setting [3]); in assay [1] (setting [4]); with RPE-Neo or RPE-MYC cells) was 0.001 to 1 µM throughout.

In the case of `Cc1ccc(CN2C(=O)CC(c3nnc(C4CC4)o3)=C(Br)c3ccc(C(N)=O)cc32)cc1F` [Compound 20-22, 5-bromo-4-(5-cyclopropyl-1,3,4-oxadiazol-2-yl)-1-(3-fluoro-4-methylbenzyl)-2-oxo-2,3-dihydro-1H-benzo[b]azepine-8-carboxamide], the minimal effective concentration (in assay [1] (setting [2]); in assay [1] (setting [3]); in assay [1] (setting [4]); in the assay on RPE-Neo or RPE-MYC cells) was 0.001 to 1 µM throughout.

Take `Cc1ccc(CN2C(=O)CC(c3nnc(C4CC4)o3)=C(Br)c3ccc(OCCCN4CCOCC4)cc32)cc1F` [Compound 20-23, 5-bromo-4-(5-cyclopropyl-1,3,4-oxadiazol-2-yl)-1-(3-fluoro-4-methylbenzyl)-8-(3-morpholinopropoxy)-1,3-dihydro-2H-benzo[b]azepin-2-one]: the minimal effective concentration (in assay [1] (setting [2]); in assay [1] (setting [3]); in assay [1] (setting [4]); with RPE-Neo or RPE-MYC cells) was 0.001 to 1 µM in each case.

In the case of `COc1ccc(CN2C(=O)CC(c3nnc(C4CC4)o3)=C(Br)c3ccccc32)cc1F` [Compound 20-25, 5-bromo-4-(5-cyclopropyl-1,3,4-oxadiazol-2-yl)-1-(3-fluoro-4-methoxybenzyl)-1,3-dihydro-2H-benzo[b]azepin-2-one], the minimal effective concentration (in assay [1] (setting [2]); in assay [1] (setting [3]); in assay [1] (setting [4]); in the assay with RPE-Neo or RPE-MYC cells) was 0.001 to 1 µM in each case.

For the compound `[2H]C(c1ccc(C)c(F)c1)N1C(=O)CC(c2nnc(C3CC3)o2)=C(Br)c2ccccc21` (stereo not drawn) [Compound 20-26, 5-bromo-4-(5-cyclopropyl-1,3,4-oxadiazol-2-yl)-1-((3-fluoro-4-methylphenyl)methyl-d)-1,3-dihydro-2H-benzo[b]azepin-2-one], the minimal effective concentration (in assay [1] (setting [2]); in assay [1] (setting [3]); in assay [1] (setting [4]); with RPE-Neo or RPE-MYC cells) was 0.001 to 1 µM throughout.

With `[2H]C([2H])(c1ccc(C)c(F)c1)N1C(=O)CC(c2nnc(C3CC3)o2)=C(Br)c2ccccc21` [Compound 20-27, 5-bromo-4-(5-cyclopropyl-1,3,4-oxadiazol-2-yl)-1-((3-fluoro-4 methylphenyl)methyl-d2)-1,3-dihydro-2H-benzo[b]azepin-2-one], the minimal effective concentration (in assay [1] (setting [2]); in assay [1] (setting [3]); in assay [1] (setting [4]); in the assay on RPE-Neo or RPE-MYC cells) was 0.001 to 1 µM throughout.

With `Cc1cc(F)c(CN2C(=O)CC(c3nnc(C4CC4)o3)=C(Br)c3ccccc32)cc1F` [Compound 20-28, 5-bromo-4-(5-cyclopropyl-1,3,4-oxadiazol-2-yl)-1-(2,5-difluoro-4-methylbenzyl)-1,3-dihydro-2H-benzo[b]azepin-2-one], the minimal effective concentration (in assay [1] (setting [2]); in assay [1] (setting [3]); in assay [1] (setting [4]); in the assay on RPE-Neo or RPE-MYC cells) was 0.001 to 1 µM each time.

For `Cc1ccc(CN2C(=O)CC(c3nnc(C4CC4)o3)=C(C3CC3)c3ccccc32)cc1F` [Compound 20-29], the minimal effective concentration (in assay [1] (setting [2]); in assay [1] (setting [3]); in assay [1] (setting [4]); with RPE-Neo or RPE-MYC cells) was 1 to 10 µM in each case.

For the origin of these results see patent US20250011289A1, “1H-BENZO[B]AZEPIN-2(3H)-ONE COMPOUNDS, COMPOSITIONS AND METHODS OF TREATING CANCER” (Chengdu Anticancer Bioscience, Ltd., priority 2021, published 2025).
